Source: patent publication US10968183B2, “Small molecule FIEL1 inhibitor in inflammatory and fibrotic lung injury” (UNIVERSITY OF PITTSBURGH—OF THE COMMONWEALTH SYSTEM OF …, priority 2015, dated 2021)

Molecular target: T1, FIEL1 (Mus musculus, UniProt Q8CHG5)
T1 construct: endogenous in cells; host or cells: MLE (murine lung epithelial) cells
T1 sequence (Q8CHG5 1-789): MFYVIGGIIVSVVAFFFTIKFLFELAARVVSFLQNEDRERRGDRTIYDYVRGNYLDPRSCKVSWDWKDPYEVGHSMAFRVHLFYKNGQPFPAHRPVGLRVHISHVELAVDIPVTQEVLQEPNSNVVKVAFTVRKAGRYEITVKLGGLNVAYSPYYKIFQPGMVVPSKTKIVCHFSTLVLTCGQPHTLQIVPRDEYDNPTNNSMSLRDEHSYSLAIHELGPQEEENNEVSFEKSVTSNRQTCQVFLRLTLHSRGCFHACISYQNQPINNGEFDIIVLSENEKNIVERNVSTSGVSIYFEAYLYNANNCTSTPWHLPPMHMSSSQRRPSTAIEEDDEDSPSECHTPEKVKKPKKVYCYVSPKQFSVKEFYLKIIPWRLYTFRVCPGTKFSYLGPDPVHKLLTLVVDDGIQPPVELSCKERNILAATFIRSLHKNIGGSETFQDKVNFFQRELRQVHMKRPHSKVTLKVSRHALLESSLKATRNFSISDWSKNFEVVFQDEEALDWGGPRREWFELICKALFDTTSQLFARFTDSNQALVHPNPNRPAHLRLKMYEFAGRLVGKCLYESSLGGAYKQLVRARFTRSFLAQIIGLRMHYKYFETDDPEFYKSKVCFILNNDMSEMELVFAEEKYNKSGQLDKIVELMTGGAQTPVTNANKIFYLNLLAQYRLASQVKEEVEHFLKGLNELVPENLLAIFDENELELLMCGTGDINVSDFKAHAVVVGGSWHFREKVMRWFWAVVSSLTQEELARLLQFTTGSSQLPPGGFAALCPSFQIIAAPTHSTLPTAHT
Assay: PIAS4 protein immunoblot in MLE cells exposed to compounds
Type: cell-based, murine
Conditions: 18 h, FIG. 7D
Experimental: FIG. 7A. […] FIG. 7B. Structures of the BC-1480 backbone and lead compound BC-1485. FIG. 7C. FIEL1 protein was HIS-purified from FIEL1 expression in 293T cells using cobalt beads. Beads were then extensively washed prior to exposure to BC-1480 or BC-1485 at different concentrations (10^−4 to 100 μM). Purified PIAS4 protein was then incubated with drug-bound FIEL1 beads overnight. Beads were washed, and proteins were eluted and resolved on SDS-PAGE. The relative amounts of PIAS4 detected in the pull-downs was normalized to loading and quantified (n=2). FIG. 7D. MLE cells were exposed to BC-1480 or BC-1485 at various concentrations for 18 h. Cells were then collected and immunoblotted. FIGS. 7E-J. C57BL/6J mice were administered with bleomycin (0.05 U) for 7-21 days. Compounds BC-1480 and BC-1485 were given to mice through drinking water with an estimated dose of 5 mg/kg/d. Mice were euthanized, and lungs were lavaged with saline, harvested, and then homogenized. Lavage proteins, CXCL1, and total cell count were measured in FIGS. 7E-G. H. Survival studies of mice that were given bleomycin and compound treatments. Mice were carefully monitored over time; moribund, preterminal animals were immediately euthanized and recorded as deceased. […] Hydroxyproline contents were measured in lungs from 7, 14, and 21d after bleomycin challenge. […]

Compound: CC(NC(=O)c1ccc(NS(=O)(=O)c2ccc3[nH]c(=O)[nH]c3c2)cc1)C(=O)N(C)C (stereo not shown) [BC-1485]
- activity in increasing PIAS4 protein levels compared to BC-1480: > 100 fold
